Source: patent US20120115877A1, “Facially Amphiphilic Compounds, Compositions, And Uses Thereof In Treating Cancer” (POLYMEDIX, INC., priority 2010, published 2012)

Tests used:
Type in all cases: cell-based, human
T-47D = assay: NCI-60 screen, Breast Cancer; conditions: 10 μM
Procedure: (§1) Several compounds were tested at single concentrations (10 μM) against 59 different human tumor cell lines, representing leukemia, melanoma and cancers of the lung, colon, brain, ovary, breast, prostate, and kidney (see, Table 3). The human tumor cell lines of the cancer screening panel were grown in RPMI 1640 medium containing 5% fetal bovine serum and 2 mM L-glutamine. For a typical screening experiment, cells were inoculated into 96 well microtiter plates in 100 μL at plating densities ranging from 5,000 to 40,000 cells/well depending on the doubling time of individual cell lines. After cell inoculation, the microtiter plates were incubated at 37° C., 5% CO2, 95% air and 100% relative humidity for 24 hours prior to addition of the compounds.
(§2) After 24 hours, two plates of each cell line were fixed in situ with TCA, to represent a measurement of the cell population for each cell line at the time of drug addition (Tz). Compounds were solubilized in dimethyl sulfoxide at 400-fold the desired final maximum test concentration and stored frozen prior to use. At the time of drug addition, an aliquot of frozen concentrate was thawed and diluted to twice the desired final maximum test concentration with complete medium containing 50 μg/ml gentamicin. Additional four, 10-fold or ½ log serial dilutions were made to provide a total of five compound concentrations plus control. Aliquots of 100 μl of these different drug dilutions were added to the appropriate microtiter wells already containing 100 μl of medium, resulting in the required final compound concentrations.
(§3) Following drug addition, the plates were incubated for an additional 48 hours at 37° C., 5% CO2, 95% air, and 100% relative humidity. For adherent cells, the assay was terminated by the addition of cold TCA. Cells were fixed in situ by the gentle addition of 50 μl of cold 50% (w/v) TCA (final concentration, 10% TCA) and incubated for 60 minutes at 4° C. The supernatant was discarded, and the plates were washed five times with tap water and air dried. Sulforhodamine B (SRB) solution (100 μl) at 0.4% (w/v) in 1% acetic acid was added to each well, and plates were incubated for 10 minutes at room temperature. After staining, unbound dye was removed by washing five times with 1% acetic acid and the plates were air dried. Bound stain was subsequently solubilized with 10 mM trizma base, and the absorbance was read on an automated plate reader at a wavelength of 515 nm. For suspension cells, the methodology was the same except that the assay was terminated by fixing settled cells at the bottom of the wells by gently adding 50 μl of 80% TCA (final concentration, 16% TCA). Using the seven absorbance measurements (time zero, (Tz), control growth, (C), and test growth in the presence of drug at the five concentration levels (Ti)), the percentage growth was calculated at each of the compound concentrations levels. Percentage growth inhibition was calculated as:
(§4) [(Ti−Tz)/(C−Tz)]×100 for concentrations for which Ti>/=Tz
(§5) [(Ti−Tz)/Tz]×100 for concentrations for which Ti<Tz.
(§6) Three dose response parameters were calculated for each compound. Growth inhibition of 50% (GI50) was calculated from [(Ti−Tz)/(C−Tz)]×100=50, which is the compound concentration resulting in a 50% reduction in the net protein increase (as measured by SRB staining) in control cells during the compound incubation. The compound concentration resulting in total growth inhibition (TGI) was calculated from Ti=Tz. The LC50 (concentration of compound resulting in a 50% reduction in the measured protein at the end of the compound treatment as compared to that at the beginning) indicating a net loss of cells following treatment was calculated from [(Ti−Tz)/Tz]×100=−50. Values were calculated for each of these three parameters if the level of activity was reached; however, if the effect was not reached or was exceeded, the value for that parameter was expressed as greater or less than the maximum or minimum concentration tested.

MDA-MB-31/ATCC = assay: NCI-60 screen, Breast Cancer; conditions: 10 μM, MDA-MB-231/ATCC
Procedure: as §1, §2, §3, §4, §5, §6

MDA-MB-468 = assay: NCI-60 screen, Breast Cancer; conditions: 10 μM
Procedure: as §1, §2, §3, §4, §5, §6

BT-549 = assay: NCI-60 screen, Breast Cancer; conditions: 10 μM
Procedure: as §1, §2, §3, §4, §5, §6

MCF7 = assay: NCI-60 screen, Breast Cancer; conditions: 10 μM
Procedure: as §1, §2, §3, §4, §5, §6

IGROV1 = assay: NCI-60 screen, Ovarian Cancer; conditions: 10 μM
Procedure: as §1, §2, §3, §4, §5, §6

OVCAR-5 = assay: NCI-60 screen, Ovarian Cancer; conditions: 10 μM
Procedure: as §1, §2, §3, §4, §5, §6

OVCAR-3 = assay: NCI-60 screen, Ovarian Cancer; conditions: 10 μM
Procedure: as §1, §2, §3, §4, §5, §6

OVCAR-4 = assay: NCI-60 screen, Ovarian Cancer; conditions: 10 μM
Procedure: as §1, §2, §3, §4, §5, §6

NCI/ADR-RES = assay: NCI-60 screen, Ovarian Cancer; conditions: 10 μM
Procedure: as §1, §2, §3, §4, §5, §6

OVCAR-8 = assay: NCI-60 screen, Ovarian Cancer; conditions: 10 μM
Procedure: as §1, §2, §3, §4, §5, §6

SK-OV-3 = assay: NCI-60 screen, Ovarian Cancer; conditions: 10 μM
Procedure: as §1, §2, §3, §4, §5, §6

U251 = assay: NCI-60 screen, CNS Cancer; conditions: 10 μM
Procedure: as §1, §2, §3, §4, §5, §6

SNB-19 = assay: NCI-60 screen, CNS Cancer; conditions: 10 μM
Procedure: as §1, §2, §3, §4, §5, §6

SR = assay: NCI-60 screen, Leukemia; conditions: 10 μM
Procedure: as §1, §2, §3, §4, §5, §6

MOLT-4 = assay: NCI-60 screen, Leukemia; conditions: 10 μM
Procedure: as §1, §2, §3, §4, §5, §6

HL-60(TB) = assay: NCI-60 screen, Leukemia; conditions: 10 μM
Procedure: as §1, §2, §3, §4, §5, §6

K-562 = assay: NCI-60 screen, Leukemia; conditions: 10 μM
Procedure: as §1, §2, §3, §4, §5, §6

CCRF-CEM = assay: NCI-60 screen, Leukemia; conditions: 10 μM
Procedure: as §1, §2, §3, §4, §5, §6

UO-31 = assay: NCI-60 screen, Renal Cancer; conditions: 10 μM
Procedure: as §1, §2, §3, §4, §5, §6

RXF 393 = assay: NCI-60 screen, Renal Cancer; conditions: 10 μM
Procedure: as §1, §2, §3, §4, §5, §6

TK-10 = assay: NCI-60 screen, Renal Cancer; conditions: 10 μM
Procedure: as §1, §2, §3, §4, §5, §6

SN12C = assay: NCI-60 screen, Renal Cancer; conditions: 10 μM
Procedure: as §1, §2, §3, §4, §5, §6

CAKI-1 = assay: NCI-60 screen, Renal Cancer; conditions: 10 μM
Procedure: as §1, §2, §3, §4, §5, §6

ACHN = assay: NCI-60 screen, Renal Cancer; conditions: 10 μM
Procedure: as §1, §2, §3, §4, §5, §6

A498 = assay: NCI-60 screen, Renal Cancer; conditions: 10 μM
Procedure: as §1, §2, §3, §4, §5, §6

Structure (SMILES)	Percent Growth (T-47D)	Percent Growth (MDA-MB-31/ATCC)	Percent Growth (MDA-MB-468)	Percent Growth (BT-549)	Percent Growth (MCF7)	Percent Growth (IGROV1)	Percent Growth (OVCAR-5)	Percent Growth (OVCAR-3)	Percent Growth (OVCAR-4)	Percent Growth (NCI/ADR-RES)	Percent Growth (OVCAR-8)	Percent Growth (SK-OV-3)	Percent Growth (SNB-19)	Percent Growth (SR)	Percent Growth (MOLT-4)	Percent Growth (HL-60(TB))	Percent Growth (K-562)	Percent Growth (CCRF-CEM)	Percent Growth (UO-31)	Percent Growth (RXF 393)	further results
NCCc1cc(Br)cc(C#Cc2cccc(C#Cc3cc(Br)cc(CCN)c3)c2)c1 [Compound A]	31.82%	4.31%	−61.5%	102%	−89.84%	−4.832%	60.77%	−35.66%	−28.5%	23.97%	−14.54%	94.37%	27.06%	−43.87%	−43.65%	6.88%	−45.67%	−12.43%	37.26%	−26.13%	Percent Growth (U251): −64.65%; Percent Growth (TK-10): 8.048%; Percent Growth (SN12C): 22.8%; Percent Growth (CAKI-1): 70.66%; Percent Growth (ACHN): −46.91%; Percent Growth (A498): 84.01%
N=C(N)NCCCCC(=O)Nc1cc(C(F)(F)F)cc(NC(=O)Nc2ccc(NC(=O)Nc3cc(C(F)(F)F)cc(NC(=O)CCCCNC(=N)N)c3OC3CCNC3)cc2)c1OC1CCNC1 (centres unmarked) [Compound B]	3.786%	73.02%	43.02%	89.61%	44.41%	82.4%	77.33%	45.06%	23.18%	87.71%	66.59%	59.3%	49.16%	77.31%	63.33%	58.59%	38.56%	60.57%	45.67%	87.84%	Percent Growth (U251): 37.71%; Percent Growth (TK-10): 60.45%; Percent Growth (SN12C): 64.8%; Percent Growth (CAKI-1): 56.42%; Percent Growth (ACHN): 62.45%; Percent Growth (A498): 66.45%
N=C(N)NCCCCC(=O)Nc1cc(C(F)(F)F)cc(NC(=O)c2cc(C(=O)Nc3cc(C(F)(F)F)cc(NC(=O)CCCCNC(=N)N)c3SCCN)ncn2)c1SCCN [Compound C]	14.59%	81.52%	−53.05%	96.67%	10.27%	51.71%	75.78%	37.56%	38.79%	55.27%	39.11%	82.66%	47.25%	28.12%	45.62%	30.11%	4.995%	24.46%	73.64%	78.06%	Percent Growth (U251): 31.28%; Percent Growth (TK-10): 38.3%; Percent Growth (SN12C): 65.97%; Percent Growth (CAKI-1): 47.81%; Percent Growth (ACHN): 53.08%; Percent Growth (A498): 69.5%
NCCCc1cccc(-c2ccc3sc4ccc(-c5cccc(CCCN)c5)cc4c3c2)c1 [Compound D]	90.75%	60.18%	17.63%	105.8%	−59.63%	80.28%	96.93%	62.71%	59.85%	95.39%	83.89%	103.1%	79.89%	0%	2.072%	68.33%	12.99%	5.12%	85.61%	81.71%	Percent Growth (U251): 59.7%; Percent Growth (TK-10): 86.48%; Percent Growth (SN12C): 84.45%; Percent Growth (CAKI-1): 82.82%; Percent Growth (ACHN): 68.97%; Percent Growth (A498): 81.64%
c1cc(-c2ccc3sc4ccc(-c5ccnc(N6CCNCC6)c5)cc4c3c2)cc(N2CCNCC2)n1 [Compound E]	−12.27%	−41.26%	−82.28%	98.88%	−89.85%	−43.57%	−46.66%	−94.47%	−87.74%	3.12%	−61.04%	51.66%	−43.97%	−60.7%	−75.28%	−24.59%	−70.89%	−64.03%	−41.12%	−70.65%	Percent Growth (U251): −85.72%; Percent Growth (TK-10): −52.46%; Percent Growth (SN12C): −16.99%; Percent Growth (CAKI-1): −13.76%; Percent Growth (ACHN): −69.18%; Percent Growth (A498): 75.11%
NCCCc1cccc(-c2ccc3oc4ccc(-c5cccc(CCCN)c5)cc4c3c2)c1 [Compound G]	80.44%	37.19%	−3.51%	101.5%	−44.29%	42.2%	64.48%	18.54%	54.91%	83.66%	33.74%	94.45%	88.57%	−19.6%	−6.401%	46.37%	2.899%	9.165%	84.95%	65.05%	Percent Growth (TK-10): 57.59%; Percent Growth (SN12C): 82.22%; Percent Growth (CAKI-1): 56.68%; Percent Growth (ACHN): 36.71%; Percent Growth (A498): 92.26%
